In ChEMBL document CHEMBL2040762, “Hypnotic effects and GABAergic mechanism of licorice (Glycyrrhiza glabra) ethanol extract and its major flavonoid constituent glabrol” (Bioorg Med Chem, 2012):
Active and inactive are the calls of the source.

Legend:
Mus musculus [1] = assay: Hypnotic activity in fasted C57BL/6N mouse assessed as decrease in latency of pentobarbital-induced sleep at 50 mg/kg, po administered 45 mins prior to pentobarbital-induction coadministered with flumazenil by polysomnographic analysis; format: functional, organism-based; parameters: dose 50 mg/kg
Mus musculus [2] = assay: Hypnotic activity in fasted C57BL/6N mouse assessed as […] in latency of pentobarbital-induced sleep at 50 mg/kg, po administered 45 mins prior to pentobarbital-induction by polysomnographic analysis; format: functional, organism-based; parameters: dose 50 mg/kg
[3] = Displacement of [3H]flumazenil from GABA(A)-BZD receptor in Sprague-Dawley rat cerebral cortex membranes after 40 mins by liquid scintillation counting; format: cell membranes, Membrane
Mus musculus [4] = assay: Hypnotic activity in po dosed fasted C57BL/6N mouse assessed as increase in pentobarbital-induced sleep duration administered 45 mins prior to pentobarbital-induction by polysomnographic analysis; format: functional, organism-based
Mus musculus [5] = assay: Hypnotic activity in fasted C57BL/6N mouse assessed as increase in pentobarbital-induced sleep duration at 50 mg/kg, po administered 45 mins prior to pentobarbital-induction coadministered with flumazenil by polysomnographic analysis; format: functional, organism-based; parameters: dose 50 mg/kg
Mus musculus [6] = assay: Hypnotic activity in po dosed fasted C57BL/6N mouse assessed as decrease in latency of pentobarbital-induced sleep administered 45 mins prior to pentobarbital-induction by polysomnographic analysis; format: functional, organism-based
Mus musculus [7] = assay: Hypnotic activity in fasted C57BL/6N mouse assessed as increase in pentobarbital-induced sleep duration at 50 mg/kg, po administered 45 mins prior to pentobarbital-induction by polysomnographic analysis; format: functional, organism-based; parameters: dose 50 mg/kg
Mus musculus [8] = assay: Hypnotic activity in fasted C57BL/6N mouse assessed as increase in pentobarbital-induced sleep duration at 10 mg/kg, po administered 45 mins prior to pentobarbital-induction coadministered with flumazenil by polysomnographic analysis; format: functional, organism-based; parameters: dose 10 mg/kg
Mus musculus [9] = assay: Hypnotic activity in fasted C57BL/6N mouse assessed as increase in pentobarbital-induced sleep duration at 2.5 mg/kg, po administered 45 mins prior to pentobarbital-induction coadministered with flumazenil by polysomnographic analysis; format: functional, organism-based; parameters: dose 2.5 mg/kg
Mus musculus [10] = assay: Hypnotic activity in fasted C57BL/6N mouse assessed as increase in pentobarbital-induced sleep duration at 10 mg/kg, po administered 45 mins prior to pentobarbital-induction by polysomnographic analysis; format: functional, organism-based; parameters: dose 10 mg/kg
Mus musculus [11] = assay: Hypnotic activity in fasted C57BL/6N mouse assessed as decrease in pentobarbital-induced sleep latency at 10 mg/kg, po administered 45 mins prior to pentobarbital-induction coadministered with flumazenil by polysomnographic analysis; format: functional, organism-based; parameters: dose 10 mg/kg
Mus musculus [12] = assay: Hypnotic activity in fasted C57BL/6N mouse assessed as […] in latency of pentobarbital-induced sleep at 10 mg/kg, po administered 45 mins prior to pentobarbital-induction by polysomnographic analysis; format: functional, organism-based; parameters: dose 10 mg/kg
Mus musculus [13] = assay: Hypnotic activity in po dosed fasted C57BL/6N mouse assessed as decrease in pentobarbital-induced non-rapid eye movement sleep EEG delta activity at 2 mg/kg, po administered 45 mins prior to pentobarbital-induction by polysomnographic analysis; format: functional, organism-based; parameters: dose 2 mg/kg
Mus musculus [14] = assay: Hypnotic activity in po dosed fasted C57BL/6N mouse assessed as decrease in pentobarbital-induced non-rapid eye movement sleep duration at 2 mg/kg, po administered 45 mins prior to pentobarbital-induction by polysomnographic analysis; format: functional, organism-based; parameters: dose 2 mg/kg
Mus musculus [15] = assay: Hypnotic activity in po dosed fasted C57BL/6N mouse assessed as change in pentobarbital-induced rapid eye movement sleep duration at 2 mg/kg, po administered 45 mins prior to pentobarbital-induction measured up to 3 hrs by polysomnographic analysis; format: functional, organism-based; parameters: dose 2 mg/kg
Mus musculus [16] = assay: Hypnotic activity in fasted C57BL/6N mouse assessed as decrease in pentobarbital-induced sleep latency at 2 mg/kg, po administered 45 mins prior to pentobarbital-induction coadministered with flumazenil by polysomnographic analysis; format: functional, organism-based; parameters: dose 2 mg/kg
Mus musculus [17] = assay: Hypnotic activity in po dosed fasted C57BL/6N mouse assessed as decrease in latency of pentobarbital-induced sleep at 2 mg/kg, po administered 45 mins prior to pentobarbital-induction by polysomnographic analysis; format: functional, organism-based; parameters: dose 2 mg/kg
Mus musculus [18] = assay: Hypnotic activity in fasted C57BL/6N mouse assessed as increase in pentobarbital-induced sleep duration at 2 mg/kg, po administered 45 mins prior to pentobarbital-induction coadministered with flumazenil by polysomnographic analysis; format: functional, organism-based; parameters: dose 2 mg/kg
Mus musculus [19] = assay: Hypnotic activity in po dosed fasted C57BL/6N mouse assessed as change in pentobarbital-induced non-rapid eye movement sleep duration at 2 mg/kg, po administered 45 mins prior to pentobarbital-induction measured up to 3 hrs by polysomnographic analysis; format: functional, organism-based; parameters: dose 2 mg/kg
Mus musculus [20] = assay: Hypnotic activity in po dosed fasted C57BL/6N mouse assessed as effect on pentobarbital-induced rapid eye movement sleep duration at 2 mg/kg, po administered 45 mins prior to pentobarbital-induction by polysomnographic analysis; format: functional, organism-based; parameters: dose 2 mg/kg
Mus musculus [21] = assay: Hypnotic activity in fasted C57BL/6N mouse assessed as increase in pentobarbital-induced sleep duration at 0.5 mg/kg, po administered 45 mins prior to pentobarbital-induction coadministered with flumazenil by polysomnographic analysis; format: functional, organism-based; parameters: dose 0.5 mg/kg
Mus musculus [22] = assay: Hypnotic activity in po dosed fasted C57BL/6N mouse assessed as increase in pentobarbital-induced non-rapid eye movement sleep duration at 2 mg/kg, po administered 45 mins prior to pentobarbital-induction measured up to 2 hrs by polysomnographic analysis; format: functional, organism-based; parameters: dose 2 mg/kg

CC(C)=CCc1cc([C@@H]2CC(=O)c3ccc(O)c(CC=C(C)C)c3O2)ccc1O [GLABROL]
active: Activity (Mus musculus [2]) | Activity (Mus musculus [4]) Dose-dependent effect | Activity (Mus musculus [6]) Dose-dependent effect | Activity (Mus musculus [7])
1630 nM: Ki [3]
inactive: Activity (Mus musculus [1]) | Activity (Mus musculus [5])

Cc1ccc(-c2nc3ccc(C)cn3c2CC(=O)N(C)C)cc1
active: Activity (Mus musculus [10]) | Activity (Mus musculus [12])
inactive: Activity (Mus musculus [8]) | Activity (Mus musculus [9]) | Activity (Mus musculus [11])

CN1C(=O)CN=C(c2ccccc2)c2cc(Cl)ccc21
active: Activity (Mus musculus [13]) | Activity (Mus musculus [14]) | Activity (Mus musculus [17]) | Activity (Mus musculus [22])
inactive: Activity (Mus musculus [15]) | Activity (Mus musculus [16]) | Activity (Mus musculus [18]) | Activity (Mus musculus [19]) | Activity (Mus musculus [20]) | Activity (Mus musculus [21])
